What was measured:
[1] = xn = mol fraction of the nth substance listed; settings: 298.15 K, 101 kPa, Liquid
[2] = excess molar enthalpy (molar enthalpy of mixing); xn = mol fraction of the nth substance listed; settings: 298.15 K, 101 kPa, Liquid

ClCCCCCCCl [1,6-dichlorohexane] + CCCCOC(=O)CC
[1]
Settings | mass density [kg/m3]
x2 = 0.0591 | 1052.23
x2 = 0.1161 | 1041.11
x2 = 0.1728 | 1030.03
x2 = 0.2284 | 1019.22
x2 = 0.345 | 996.62
x2 = 0.4083 | 984.38
x2 = 0.4668 | 973.12
x2 = 0.5258 | 961.74
x2 = 0.6403 | 939.75
x2 = 0.6994 | 928.38
x2 = 0.7645 | 915.95
x2 = 0.8173 | 905.83
x2 = 0.8835 | 893.21
x2 = 0.9423 | 882.05

ClCCCCCl [1,4-dichlorobutane] + CCCCOC(=O)CC
[1]
Settings | mass density [kg/m3]
x2 = 0.0475 | 1117.36
x2 = 0.0925 | 1102.34
x2 = 0.1874 | 1072.01
x2 = 0.239 | 1056.26
x2 = 0.29 | 1041.21
x2 = 0.3443 | 1025.65
x2 = 0.4006 | 1010.07
x2 = 0.5171 | 979.4
x2 = 0.5798 | 963.71
x2 = 0.6418 | 948.74
x2 = 0.7075 | 933.4
x2 = 0.8474 | 902.46
x2 = 0.8829 | 894.96
x2 = 0.9206 | 887.11
x2 = 0.9575 | 879.61

CCCCOC(=O)CCC [butyl butanoate] + ClCCCCCl
[1]
Settings | mass density [kg/m3]
x1 = 0.0415 | 1117.54
x1 = 0.0836 | 1101.67
x1 = 0.1727 | 1070.09
x1 = 0.2202 | 1054.28
x1 = 0.322 | 1022.51
x1 = 0.3752 | 1006.99
x1 = 0.4319 | 991.17
x1 = 0.4904 | 975.58
x1 = 0.554 | 959.43
x1 = 0.6186 | 943.82
x1 = 0.7579 | 912.57
x1 = 0.8338 | 896.78
x1 = 0.9131 | 881.09

ClCCCCCCCl [1,6-dichlorohexane] + CCCCOC(C)=O
[1]
Settings | mass density [kg/m3]
x2 = 0.0673 | 1052.28
x2 = 0.1308 | 1041.35
x2 = 0.1929 | 1030.53
x2 = 0.2552 | 1019.5
x2 = 0.3164 | 1008.57
x2 = 0.3768 | 997.63
x2 = 0.4368 | 986.64
x2 = 0.4966 | 975.54
x2 = 0.554 | 964.77
x2 = 0.6113 | 953.89
x2 = 0.6692 | 942.75
x2 = 0.7252 | 931.87
x2 = 0.7823 | 920.59
x2 = 0.8912 | 898.78
x2 = 0.9466 | 887.47

ClCCCCCCl [1,5-dichloropentane] + CCCCOC(C)=O
[1]
Settings | mass density [kg/m3]
x2 = 0.0558 | 1082.62
x2 = 0.1119 | 1070.12
x2 = 0.1697 | 1057.27
x2 = 0.2268 | 1044.6
x2 = 0.3432 | 1018.88
x2 = 0.4608 | 993.04
x2 = 0.5786 | 967.32
x2 = 0.6957 | 941.92
x2 = 0.8167 | 915.81
x2 = 0.8757 | 903.13
x2 = 0.9364 | 890.15

ClCCCCCCl [1,5-dichloropentane] + CCCCOC=O
Settings | excess molar enthalpy [kcal/mol] | mass density [kg/m3]
[1], x2 = 0.0616 | – | 1083.81
[1], x2 = 0.126 | – | 1071.76
[1], x2 = 0.1909 | – | 1059.46
[1], x2 = 0.2522 | – | 1047.68
[1], x2 = 0.3138 | – | 1035.64
[1], x2 = 0.3757 | – | 1023.39
[1], x2 = 0.4364 | – | 1011.18
[1], x2 = 0.4966 | – | 998.9
[1], x2 = 0.5548 | – | 986.84
[1], x2 = 0.6137 | – | 974.47
[1], x2 = 0.6701 | – | 962.48
[1], x2 = 0.7247 | – | 950.68
[1], x2 = 0.7822 | – | 938.09
[1], x2 = 0.8374 | – | 925.86
[1], x2 = 0.8906 | – | 913.92
[1], x2 = 0.9443 | – | 901.66
[2], x2 = 0.069 | 0.0113 | –
[2], x2 = 0.1384 | 0.0179 | –
[2], x2 = 0.2122 | 0.023 | –
[2], x2 = 0.2809 | 0.025 | –
[2], x2 = 0.3459 | 0.025 | –
[2], x2 = 0.4058 | 0.0233 | –
[2], x2 = 0.4619 | 0.0205 | –
[2], x2 = 0.4922 | 0.0168 | –
[2], x2 = 0.5374 | 0.0124 | –
[2], x2 = 0.5877 | 0.0111 | –
[2], x2 = 0.6417 | 0.00825 | –
[2], x2 = 0.7001 | 0.00729 | –
[2], x2 = 0.7618 | 0.00571 | –
[2], x2 = 0.8234 | 0.00366 | –
[2], x2 = 0.8876 | 0.00206 | –
[2], x2 = 0.9487 | 0.00105 | –
